This passage reports MIC, Activity and IC50 results from ChEMBL document CHEMBL1926505, “Lanostane and hopane triterpenes from the entomopathogenic fungus Hypocrella sp. BCC 14524” (J Nat Prod, 2011).

Data set [1] has as its system Mycobacterium tuberculosis. The data set can be described thus: Antimycobacterial activity against Mycobacterium tuberculosis H37Ra by green fluorescent protein microplate assay. The format is functional.
The test system of the next data set is Vero. The data set can be described thus: Cytotoxicity against african green monkey Vero cells by green fluorescent protein microplate assay. Type of data set: cell-based. The following applies: chlorocebus sabaeus.
The test system of the next data set is MCF7. The data set can be described thus: Cytotoxicity against human MCF7 cells by resazurin microplate assay. The format is functional, cell-based. On the technique in general: Alamar Blue is a resazurin reagent that responds to reducing activity.
The next data set relates to KB. The data set can be described thus: Cytotoxicity against human KB cells by resazurin microplate assay. Type of data set: functional, cell-based.
The test system of the next data set is Plasmodium falciparum. The data set can be described thus: Antimalarial activity against multidrug-resistant Plasmodium falciparum K1 by microculture radioisotope technique. Type of data set: functional, organism-based.
A further data set relates to NCI-H187. The data set can be described thus: Cytotoxicity against human NCI-H187 cells by resazurin microplate assay. Type of data set: functional, cell-based.

For orientation: MIC means the lowest concentration found to suppress growth. A word on the IC50: it is the midpoint of a concentration-inhibition curve.

In brackets after ≈: the same amount, converted by molar mass. Activity calls are given as the source filed them. The calls are words filed in the database; no cut-off is given here.

For the compound `NNC(=O)c1ccncc1` [ISONIAZID], the MIC in data set [1] was 0.0234 µg/mL (≈ 0.171 µM).

For `CC(C)(O)[C@H]1CC[C@]2(C)[C@H]3CC[C@@H]4[C@@]5(C)CC[C@H](O)C(C)(C)[C@@H]5CC[C@@]4(C)[C@]3(C)[C@@H](O)C[C@@H]12`, in the data set with Vero, the Activity entry is listed as “Non-toxic”. In addition, the MIC in data set [1] was greater than 50 µg/mL.

Regarding `CC(=O)O[C@H]1CC[C@]2(C)C3=C(CC[C@H]2C1(C)C)[C@]1(C)CC[C@H]([C@H]2CC[C@H](C(C)(C)O)OC2)[C@@]1(C)C[C@H]3O` [HYPOCRELLOL D], the IC50 came out at 30 µM in the data set on Vero; 38 µM in the data set with MCF7; 15 µM with KB; 8 µM in the data set on Plasmodium falciparum; 18 µM in the data set with NCI-H187. In data set [1], this compound gave an MIC of 50 µg/mL (≈ 96.8 µM).

In turn, `C[C@H]1[C@@H](O)O[C@@H]2O[C@@]3(C)CC[C@H]4[C@H](C)CC[C@@H]1[C@@]24OO3` [ARTENIMOL] displayed an IC50 with Plasmodium falciparum of 0.0011 µM.

As for `CC(C)(O)[C@H]1CC[C@]2(C)[C@H]3CC[C@@H]4[C@@]5(C)CCCC(C)(C)[C@@H]5CC[C@@]4(C)[C@]3(C)[C@@H](O)C[C@@H]12`, the Activity entry in the data set on Vero is “Non-toxic”. In data set [1], this compound gave an MIC of 12.5 µg/mL (≈ 28.1 µM).

As to `CC(=O)O[C@H]1CC[C@]2(C)[C@H]3CC[C@@H]4[C@@]5(C)CC[C@H](C(C)(C)O)[C@@H]5C[C@H](O)[C@@]4(C)[C@]3(C)[C@@H](O)C[C@H]2C1(C)C`, the IC50 in the data set on Vero was 13 µM; in the data set with MCF7 it was greater than 96 µM; with KB, 56 µM; in the data set with Plasmodium falciparum, 5.2 µM; in the data set with NCI-H187, 11 µM. The compound further showed an MIC in data set [1] of 6.25 µg/mL (≈ 12 µM).

For `CC(C)(O)[C@H]1CC[C@]2(C)[C@H]3CC[C@@H]4[C@@]5(C)CC[C@H](O)C(C)(C)[C@@H]5C[C@H](O)[C@@]4(C)[C@]3(C)[C@@H](O)C[C@@H]12`, the IC50 is 47 µM in the data set with Vero; greater than 105 µM in the data set with MCF7; 28 µM in the data set on KB; 12 µM in the data set with Plasmodium falciparum; 12 µM in the data set with NCI-H187. Besides, the MIC in data set [1] came to 50 µg/mL (≈ 105 µM).

Take `CC(=O)O[C@H]1CC[C@]2(C)[C@H]3CC[C@@H]4[C@@]5(C)CC[C@H](C(C)(C)O)[C@@H]5C[C@H](O)[C@@]4(C)[C@]3(C)CC[C@H]2C1(C)C`: the Activity result with Vero was “Non-toxic”. In data set [1], 12.5 µg/mL (≈ 24.9 µM) was the least that counted as inhibitory (MIC).

For `CC(=O)O[C@H]1CC[C@]2(C)C3=CC[C@]4(C)[C@@H]([C@H]5CC[C@H](C(C)(C)O)OC5)CC[C@@]4(C)C3=CC[C@H]2C1(C)C` [HYPOCRELLOL B], in the data set with Vero, the Activity entry was “Non-toxic”. Further, the result (with MCF7; in the data set on KB; in the data set on Plasmodium falciparum; with NCI-H187; in data set [1]) was inactive.

Regarding `Cc1c2ccncc2c(C)c2c1[nH]c1ccccc12` [ELLIPTECINE], the half-maximal inhibitory concentration (IC50) in the data set on Vero amounted to 9.8 µM.

With `C=C(C)[C@H]1CC[C@]2(C)[C@H]3CC[C@@H]4[C@@]5(C)CCCC(C)(C)[C@@H]5C[C@H](O)[C@@]4(C)[C@]3(C)[C@@H](O)C[C@@H]12` (relative stereo), the Activity entry in the data set with Vero is listed as “Non-toxic”. Further, the outcome (with MCF7; with KB; in the data set with Plasmodium falciparum; with NCI-H187; in data set [1]) was inactive.

For `CC(C)(O)[C@H]1CC[C@H]([C@H]2CC[C@@]3(C)C4=CC[C@H]5C(C)(C)[C@@H](O)CC[C@]5(C)C4=CC[C@]23C)CO1` [HYPOCRELLOL A], the Activity result in the data set on Vero is given as “Non-toxic”. Moreover, the outcome (in the data set on MCF7; in the data set on KB; with Plasmodium falciparum; with NCI-H187; in data set [1]) was inactive.

On to `C=C(C)[C@H]1CC[C@]2(C)[C@H]3CC[C@@H]4[C@@]5(C)CC[C@H](OC(C)=O)C(C)(C)[C@@H]5CC[C@@]4(C)[C@]3(C)[C@@H](O)C[C@@H]12`, for which, in the data set on Vero, the Activity result is “Non-toxic”. The outcome (in the data set on MCF7; with KB; in the data set on Plasmodium falciparum; in the data set with NCI-H187; in data set [1]) was inactive.
